# Test results: EP2386565A2, “Compounds and methods to inhibit or augment an inflammatory response” (Cambridge Enterprise Ltd., priority 1999, dated 2000)
# Positions of bridges follow the written chain, without caps; N, C: chain ends. Non-standard residues stand in square brackets, D forms with d. Residues, ends and D or L forms follow the SMILES beside them.
# What was measured:
# LPS-induced serum TNF-α = test: Endotoxemia model (LPS i.p.); type: in vivo, mice
# Description: A mouse endotoxemia model is used to screen agents of the invention for in vivo functional anti-inflammatory activity in a rapid manner. Female CD-1 mice are injected i.p. (ventral abdomen) with 583 µg LPS. mRNA and protein levels of TNF-α, IFN-γ, IL-4 and MCP-1 and other markers of the inflammatory response are then determined. Thirty minutes prior to LPS administration, the animals were administered one of three different doses of CRD-Leu4Ile11Cys13peptide 3(3-12)[MCP-1] as an intravenous loading dose and a subcutaneous bolus dose (on dorsum). PBS treated animals with and without LPS administration were positive and negative controls. Two hours later, animals were euthanized and serum collected. Serum was separated from the cell pellet and frozen until ELISA analysis of cytokine levels. Lung and liver samples were collected for mRNA analyses and histopathology. […] Serum levels and mRNA levels of IL-4, IFN-γ and MCP-1 are also determined.
# Each animal received a pretreatment (200 ul) by sub-cutaneous injection into the scruff at the back of the neck. All pre-treatment agents were administered at 1 mg per animal (approximately 40-50 mg/kg). After 30-45 minutes, animals in groups 2 through 6 received 750 µg bacterial lipopolysaccharide (LPS) in 300 µl PBS by intraperitoneal injection. Animals in group 1 received PBS vehicle alone.
# After 3 hours (2 hours post-LPS), all animals were sacrificed by terminal anaesthesia followed by cardiac puncture. Approximately 1 ml of blood was withdrawn and serum was prepared. Blood was allowed to clot at room temperature for approximately 2 hours, then the clot was spun out and the serum aliquoted and stored at -20°C until tested. Serum from each animal was assayed in duplicate for TNF-α using the Quantikine M kit (R&D Systems) calibrated by interpolation of the standard curve.
# [1] = test system: antigen specific antibody recall response; test: Antigen (scFv) recall response, safety and serum levels after single i.v. dose; type: in vivo, Cynomolgus monkeys
# Description: Cynomolgus monkeys were immunized with antigen that is a single chain Fv (scFv) protein. Each animal previously received 3 i.v. injections of the antigen and all developed high serum titers. Five animals were randomly divided into 2 groups. Two animals served as PBS treated controls and 3 were treated i.v. with 50 mg/kg CRD-Leu4Ile11Cys13 peptide 3(3-12)[MCP-1]. Thirty minutes following CRD-Leu4Ile11Cys13 peptide 3(3-12)[MCP-1] treatment all animals were challenged i.v. with 3.5 mg/kg antigen. In addition, animals were challenged intradermal with each of the following in a volume of 50 µl:PBS; 50 µg antigen; 5 µg antigen; 0.5 µg antigen; 500 ng MCP-1; or 50 ng LPS. Serum was collected at 10 minutes, 30 minutes, 60 minutes, 4 hours, and 24 hours. Animals were sacrificed 24 hours after CRD-Leu4Ile11Cys13peptide 3(3-12)[MCP-1] injection and complete necropsy performed and tissues fixed for histopathology. Fixed and frozen skin samples were harvested for histopathology and immunohistochemistry. Blood, spleen, and lymph node were harvested for assessment of cell function in migration assay, proliferation assay, and antigen specific antibody and cytokine recall. Blood was also analyzed pre- and post-CRD-Leu4Ile11Cys13 peptide 3(3-12)[MCP-1] injection for hematology parameters and serum chemistry. Serum levels were evaluated by an LC-MS method (limit of quantitation = 1 µg/ml) pre-treatment and then at 10 minutes, 30 minutes, 60 minutes, 4 hours and 20-24 hours after injection. Urinalysis was performed pre- and post-CRD-Leu4Ile11Cys13 peptide 3(3-12)[MCP-1] injection.
# THP-1 cells = test: Agonist activity: agent in the lower compartment of the migration chamber; type: cell-based, human
# Text: Agents with agonist activity may also be identified using the transwell migration assay, where the cells are placed in the upper compartment (see Figure 1) in the absence of agent, and the agent, e.g. peptide 2[MCP-1], is placed at varying concentrations in the lower compartment in place of the chemokine. […] Preferably, agents having agonist activity also stimulate migration of primary human cells, e.g., monocytes, in a transwell migration assay.
# To evaluate the agonist activity ofCRD-Leu4Ile11Cys13 peptide 3(3-12)[MCP-1], CRD-Leu4Ile11Cys13 peptide 3(3-12)[MCP-1] was placed in the lower compartment of the migration chamber at various concentrations and 50,000 THP-1 cells were placed in the upper compartment. The number of cells in the lower compartment after 4 hours was then determined using the vital dye MTT. […] At higher concentrations (1 µM and 10 µM), there may be a small stimulation of migration in this experiment, although the magnitude of this migratory response was less than that seen with 3.25 ng/ml recombinant MCP-1. CRD-Leu4Ile11Cys13 peptide 3(3-12)[MCP-1] is unlikely to have any agonist activity that is significant at concentrations attainable in vivo.
compound,measurement,setting,value
CC[C@@H](C)[C@H]1NC(=O)[C@@H](CCC(N)=O)NC(=O)[C@H](N)CSSC[C@H](C(N)=O)NC(=O)[C@@H](CC(C)C)NC(=O)[C@@H](CC(=O)O)NC(=O)[C@H]2CCCN2C(=O)[C@@H](CCCCN)NC(=O)[C@@H](CCC(N)=O)NC(=O)[C@@H](CCCCN)NC(=O)[C@@H](Cc2c[nH]c3ccccc23)NC1=O (H-[dC][dQ][dI][dW][dK][dQ][dK][dP][dD][dL][dC]-NH2; disulfide 1-11),serum MCP-1 and liver MCP-1 RNA after LPS (in words),"LPS-induced serum TNF-α; mouse, in vivo",no modulation
same,serum TNF-α after LPS (in words),"LPS-induced serum TNF-α; mouse, in vivo",dose-dependent inhibition
same,serum TNF-α after LPS (in words),"LPS-induced serum TNF-α; mouse, in vivo, listed as CRD-Leu4Ile11Cys13peptide 3(3-12)[MCP-1]",dose dependent decrease
same,half-maximal dose for inhibition of LPS-stimulated TNF-α,LPS-induced serum TNF-α; s.c.,approximately 100 µg per animal
same,hematology and serum chemistry (in words),[1]; 50 mg/kg i.v.,No clinically significant changes
same,period with detectable drug levels in serum after treatment,[1]; 50 mg/kg i.v.,4 h
same,"antigen specific antibody in recall responses of splenocytes, lymph node cells and PBL (in words)",[1]; single i.v. dose 50 mg/kg,lowest detectable levels of antigen specific antibody
same,agonist activity (in words),THP-1 cells,No agonist activity was detected
